# Laboratory results: patent publication US20240122212A1 (SUNTORY HOLDINGS LIMITED, priority 2020, published 2024)
# Assays:
# [1] = biological target: T1, sweet taste receptor (T1R2/T1R3) (Homo sapiens, UniProt Q7RTX0+Q8TE23); test: Sensory evaluation of sweetness intensity (VAS) in the co-presence of sweet taste receptor inhibitor lactisole (Example 5); assay type: in vivo
# T1 construct: endogenous in cells; host or cells: taste cells in the mouths of 3 trained human panelists (in vivo spitting test)
# T1 sequence (Q8TE23 20-839): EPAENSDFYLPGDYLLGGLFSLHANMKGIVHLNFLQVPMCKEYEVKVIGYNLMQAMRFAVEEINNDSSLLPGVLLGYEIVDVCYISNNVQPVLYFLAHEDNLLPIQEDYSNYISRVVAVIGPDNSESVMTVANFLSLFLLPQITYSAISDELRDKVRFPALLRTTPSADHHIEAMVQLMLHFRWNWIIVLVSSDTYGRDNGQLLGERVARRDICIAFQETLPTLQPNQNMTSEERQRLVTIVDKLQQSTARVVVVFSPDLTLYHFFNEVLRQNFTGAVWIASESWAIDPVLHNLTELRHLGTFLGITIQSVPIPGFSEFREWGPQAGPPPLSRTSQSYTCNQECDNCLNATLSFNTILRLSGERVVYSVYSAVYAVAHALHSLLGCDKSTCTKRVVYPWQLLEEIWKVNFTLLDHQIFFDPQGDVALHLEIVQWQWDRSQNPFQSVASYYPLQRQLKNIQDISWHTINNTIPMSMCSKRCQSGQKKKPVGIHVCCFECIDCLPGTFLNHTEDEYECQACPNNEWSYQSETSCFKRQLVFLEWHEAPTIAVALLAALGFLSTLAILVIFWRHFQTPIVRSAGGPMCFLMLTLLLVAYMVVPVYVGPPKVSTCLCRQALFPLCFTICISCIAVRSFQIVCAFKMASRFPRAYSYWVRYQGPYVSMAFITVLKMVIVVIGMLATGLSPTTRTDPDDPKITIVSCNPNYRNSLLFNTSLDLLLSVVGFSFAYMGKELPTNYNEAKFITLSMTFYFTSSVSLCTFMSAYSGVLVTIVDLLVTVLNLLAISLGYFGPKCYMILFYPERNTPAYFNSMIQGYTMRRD
# T1 sequence (Q7RTX0 21-852): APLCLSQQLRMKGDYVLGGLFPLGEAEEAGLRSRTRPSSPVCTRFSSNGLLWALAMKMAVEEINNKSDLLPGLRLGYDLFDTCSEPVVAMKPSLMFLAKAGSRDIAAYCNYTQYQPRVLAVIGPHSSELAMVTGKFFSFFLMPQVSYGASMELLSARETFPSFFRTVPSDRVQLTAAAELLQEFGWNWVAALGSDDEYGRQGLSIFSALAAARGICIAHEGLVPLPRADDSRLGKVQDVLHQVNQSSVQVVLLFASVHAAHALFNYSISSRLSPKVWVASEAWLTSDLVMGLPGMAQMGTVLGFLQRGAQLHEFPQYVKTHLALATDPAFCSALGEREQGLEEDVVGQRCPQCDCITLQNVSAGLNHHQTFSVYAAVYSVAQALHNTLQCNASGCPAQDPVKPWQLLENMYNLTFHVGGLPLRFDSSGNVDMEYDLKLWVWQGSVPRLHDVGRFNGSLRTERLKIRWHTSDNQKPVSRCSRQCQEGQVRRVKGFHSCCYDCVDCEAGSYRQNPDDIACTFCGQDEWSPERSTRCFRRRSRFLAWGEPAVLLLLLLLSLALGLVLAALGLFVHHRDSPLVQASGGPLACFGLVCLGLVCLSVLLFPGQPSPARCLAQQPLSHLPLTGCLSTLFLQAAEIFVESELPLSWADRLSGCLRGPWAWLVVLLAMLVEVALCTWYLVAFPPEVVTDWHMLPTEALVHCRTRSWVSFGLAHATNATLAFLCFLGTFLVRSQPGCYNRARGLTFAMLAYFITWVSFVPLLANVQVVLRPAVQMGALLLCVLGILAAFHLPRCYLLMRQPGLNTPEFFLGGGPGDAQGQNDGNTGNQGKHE
# Excerpt: Whether or not a certain sweet substance can trigger a sweetness response even if a sweetness response through the sweet taste receptor T1R2/T1R3 is inhibited may be determined by, for instance, measuring, by sensory evaluation or cell assay, the sweetness intensity of a solution (control solution), in which only the above sweet substance has been dissolved, and the sweetness intensity (remaining sweetness intensity) of a solution (test solution), in which a sweet taste receptor T1R2/T1R3 inhibitor (e.g., lactisole, gymnemic acid) is added for inhibiting a sweetness response through the sweet taste receptor T1R2/T1R3 to the control solution; and by comparing the sweetness intensity of the control solution and the sweetness intensity of the test solution.
# The evaluation was carried out by those (3 persons) who received sensory trainings as panelists. […] Additionally, solutions having the same composition as sample solutions 1, 2, 3, and 4 except that lactisole was not added were used as control solutions 1, 2, 3, and 4. The sensory evaluation was carried out by spitting test. The sweetness intensity was rated by the VAS scale and calculated with the intensity of a solution to which lactisole was not added being 100% and the sweetness intensity of a solution to which lactisole was added as a relative value (%). The sweetness inhibitory effect by lactisole was verified by this.
# [2] = Basic taste quality sensory evaluation by trained panelists, spitting test, against 6% sucrose control (Example 1); assay type: in vivo, human
# Protocol: In each evaluation item, the rating on a scale of −3 point to 3 point was performed, with the case where there is no difference from the control solution being 0. Quicker in sweetness onset, higher sweetness intensity, shorter lingering sweet aftertaste, lower bitterness intensity, and shorter lingering bitter aftertaste compared to the control were rated near 3 points. Slower in sweetness onset, lower sweetness intensity, longer lingering sweet aftertaste, higher bitterness intensity, and longer lingering bitter aftertaste compared to the control were rated near −3 points. That is, the closer to 0 point, the closer to the control. The evaluation was carried out by those (4 persons) who received sensory trainings as panelists by spitting test. The amount of a sweet substance contained in each sample solution was adjusted to be equal to the control solution on the calculation. […] The energy (kcal/100 ml) was calculated from the amount of the sweetener added.
# [3] = scale −3 to 3, 0 = no difference from 6% sucrose control, D-allulose 8.57 w/v %, D-arabinose 10 w/v % in pure water, 4 panelists
structure (smiles),measurement,setting,value
O=C[C@@H](O)[C@H](O)[C@H](O)CO [D-Arabinose],"remaining sweetness intensity when 100 ppm of lactisole was added, compared with sucrose",[1]; 100 ppm lactisole,equal to or more than that of sucrose
same,Sweetness intensity residual ratio (%) with addition of 100 ppm lactisole,"[1]; lactisole-free solution = 100%, sucrose 8 w/v %, sucralose 149 ppm, D- or L-arabinose 13.3 w/v %, VAS, average of n=3",42.47%
same,taste quality compared with aqueous solutions containing D-allulose,"[2]; aqueous solutions, Example 1",lower bitterness intensity and shorter lingering bitter aftertaste with the taste quality closer to sucrose
same,Bitterness intensity,[2]; [3],0 point
same,Lingering bitter aftertaste,[2]; [3],−0.125 point
same,Lingering sweet aftertaste,[2]; [3],0 point
same,Quickness in sweetness onset,[2]; [3],0.250 point
same,Sweetness intensity,[2]; [3],0 point
